Source: ChEMBL document CHEMBL1133878, “Selectivity enhancement induced by substitution of non-natural analogues of arginine and lysine in arginine-based thrombin inhibitors” (Bioorg Med Chem Lett, 2001)

Legend:
Serine protease 1 = target: T1, Serine protease 1 (Bos taurus, UniProt P00760); test: Binding affinity determined against trypsin by Dixon method
T1 sequence (P00760 whole entry): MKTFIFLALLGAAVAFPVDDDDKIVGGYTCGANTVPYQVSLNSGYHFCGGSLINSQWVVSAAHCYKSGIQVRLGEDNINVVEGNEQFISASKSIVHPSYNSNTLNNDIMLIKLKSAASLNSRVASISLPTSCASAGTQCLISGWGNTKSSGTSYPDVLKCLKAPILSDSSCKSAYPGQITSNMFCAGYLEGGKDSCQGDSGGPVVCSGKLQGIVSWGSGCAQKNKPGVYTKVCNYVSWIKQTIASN

[1] = target: Thrombin & trypsin (Homo sapiens) (UniProt P00734+P07477+P07478+P35030); test: Selectivity ratio (trypsin/thrombin) was calculated; type: protein assay
Prothrombin = Prothrombin (Homo sapiens, UniProt P00734); test: Binding affinity determined against thrombin by Dixon method

Compound | Ki (Serine protease 1) | Selectivity ratio [1] | Ki (Prothrombin)
CN(C)c1cccc2c(S(=O)(=O)NC(CCCNC3=NCCN3)C(=O)N3CCCCC3)cccc12 (stereo unspecified) | 116 µM | 29.4 | 
CNC(C)CCCCC(NS(=O)(=O)c1cccc2c(N(C)C)cccc12)C(=O)N1CCCCC1 (stereo unspecified) |  |  | > 10 µM
CN(C)c1cccc2c(S(=O)(=O)NC(CCCN3CCN=C3N)C(=O)N3CCCCC3)cccc12 (stereo unspecified) | 278 µM | 525 | 0.53 µM
C/N=C(/N)NCCCC(NS(=O)(=O)c1cccc2c(N(C)C)cccc12)C(=O)N1CCCCC1 (stereo unspecified) | 922 µM | 962 | 0.958 µM
CN(C)c1cccc2c(S(=O)(=O)NC(CCCNC3=NCCCN3)C(=O)N3CCCCC3)cccc12 (stereo unspecified) |  |  | > 10 µM
CC/N=C(/N)NCCCC(NS(=O)(=O)c1cccc2c(N(C)C)cccc12)C(=O)N1CCCCC1 (stereo unspecified) | 337 µM | 178 | 1.89 µM
CN(C)c1cccc2c(S(=O)(=O)NC(CCCN=C(N)N)C(=O)N3CCCCC3)cccc12 (stereo unspecified) | 2.34 µM | 28.2 | 0.083 µM
